In patent US9587471B2, “Controlling bioavailability of nutrient additions in subsurface formations” (E I DU PONT DE NEMOURS AND COMPANY, priority 2008, dated 2017):

Assays:
Format in all cases: cell-based
[1] = test system: Pseudomonas stutzeri strain LH4:15, ATCC PTA-8823; assay: Aerobic growth response (turbidity) to varying concentrations of potential microbial nutrients; note: key: − = no turbidity; + = slight turbidity; ++ = moderate to heavy turbidity
Description: (§1) Typically cells were grown at a temperature in the range of about 25° C. to about 40° C. in an appropriate medium.
Additional potential microbial nutrients were added at various concentrations as outlined in Table 1. Growth was monitored visually with positive growth indicated by moderate to heavy turbidity.

[2] = test system: Pseudomonas stutzeri strain LH4:15 (ATCC PTA-8823); assay: Anaerobic growth and survival: biocidal versus biostatic inhibition; details: for change in Log cell number: day 0 vs day 7, anaerobic; for Final anaerobic vial OD: starting OD600 = 0.05
Description: In this invention, the anaerobic growth and survival was tested in 20 ml crimp-capped anaerobic vials, using a complete nutrient medium of the following composition: Na2HPO4.7H2O, 1.4 g/L, KH2PO4, 0.69 g/L, NH4Cl, 0.5 g/L, MgSO4.7H2O, 0.1/L g, SL-10 trace metals, 10 ml, NaCl, 7.5 g/L, NaHCO3, 7.2 g/L, sodium nitrate, 12 g/L, Na lactate, 7 g/L, yeast extract, 10 mg/L, pH 7.3-7.8.
The anaerobic growth and survival was tested as outlined above. […] Vials were inoculated using an overnight aerobic culture of Pseudomonas stutzeri strain LH4:15 (ATCC PTA-8823) in Luria Bertani medium (LB, Mediatech Inc., Herndon, Va.,) at a final OD600 of 0.05. Within 2 hours of inoculation, serial dilutions from each treatment vial were made into aerobic LB medium to determine the cell numbers at Day 0. After approximately 24 hours cell numbers were estimated by noting the highest positive dilution based on the presence or absence of turbidity in dilutions of 10^−1 to 10^−11 in the serial dilution plates. Cell numbers on Day 0 and Day 7 were measured to obtain a survival estimate during inhibitor exposure.

[3] = test system: Pseudomonas stutzeri strain LH4:15 (ATCC PTA-8823); assay: Aerobic growth response (turbidity) to varying concentrations of industrial preservatives;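 for growth (turbidity): single plus means slight turbidity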
Description: as §1
Pseudomonas stutzeri strain LH4:15 (ATCC PTA-8823) was grown as outlined in Example 1. Various preservatives commonly used in the food, cosmetic, and water treatment industries were tested for their inhibitory effect at various concentrations (Table 2). Growth was monitored visually and positive growth was indicated by moderate to heavy turbidity.

**Q.** What does the source list for CCCCCCCCO [Octanol]?
**A.** Growth response (turbidity) ([1]; 0.001 g/L, 24 hours of incubation): ++; Growth response (turbidity) ([1]; 0.001 g/L, 48 hours of incubation): ++; Growth response (turbidity) ([1]; 0.001 g/L, 120 hours of incubation): ++; Growth response (turbidity) ([1]; 0.005 g/L, 24 hours of incubation): ++; Growth response (turbidity) ([1]; 0.005 g/L, 48 hours of incubation): ++; Growth response (turbidity) ([1]; 0.005 g/L, 120 hours of incubation): ++; Growth response (turbidity) ([1]; 0.01 g/L, 24 hours of incubation): ++; Growth response (turbidity) ([1]; 0.01 g/L, 48 hours of incubation): ++; Growth response (turbidity) ([1]; 0.01 g/L, 120 hours of incubation): ++; Growth response (turbidity) ([1]; 0.05 g/L, 24 hours of incubation): ++; Growth response (turbidity) ([1]; 0.05 g/L, 48 hours of incubation): ++; Growth response (turbidity) ([1]; 0.05 g/L, 120 hours of incubation): ++; Growth response (turbidity) ([1]; 0.25 g/L, 24 hours of incubation): −; Growth response (turbidity) ([1]; 0.25 g/L, 48 hours of incubation): −; Growth response (turbidity) ([1]; 0.25 g/L, 120 hours of incubation): −; Growth response (turbidity) ([1]; 0.5 g/L, 24 hours of incubation): −; Growth response (turbidity) ([1]; 0.5 g/L, 48 hours of incubation): −; Growth response (turbidity) ([1]; 0.5 g/L, 120 hours of incubation): −; change in Log cell number ([2]; 0.05 g/L): 0; Final anaerobic vial OD ([2]; 0.05 g/L): 0.28; change in Log cell number ([2]; 0.1 g/L): −1; Final anaerobic vial OD ([2]; 0.1 g/L): 0.4; change in Log cell number ([2]; 0.2 g/L): 0; Final anaerobic vial OD ([2]; 0.2 g/L): 0.54; change in Log cell number ([2]; 0.25 g/L): −1; Final anaerobic vial OD ([2]; 0.25 g/L): 0.4; change in Log cell number ([2]; 0.5 g/L): −1; Final anaerobic vial OD ([2]; 0.5 g/L): 0.01; effectiveness of the inhibitor in words ([2]; judged by OD600 and cell killing, Table 3): ineffective except at the highest concentrations

**Q.** What does the source list for OCCO [Ethylene glycol]?
**A.** Growth response (turbidity) ([1]; 10 g/L, 24 hours of incubation): ++; Growth response (turbidity) ([1]; 10 g/L, 48 hours of incubation): ++; Growth response (turbidity) ([1]; 10 g/L, 120 hours of incubation): ++; Growth response (turbidity) ([1]; 20 g/L, 24 hours of incubation): ++; Growth response (turbidity) ([1]; 20 g/L, 48 hours of incubation): ++; Growth response (turbidity) ([1]; 20 g/L, 120 hours of incubation): ++; Growth response (turbidity) ([1]; 50 g/L, 24 hours of incubation): ++; Growth response (turbidity) ([1]; 50 g/L, 48 hours of incubation): ++; Growth response (turbidity) ([1]; 50 g/L, 120 hours of incubation): ++; Growth response (turbidity) ([1]; 100 g/L, 24 hours of incubation): +; Growth response (turbidity) ([1]; 100 g/L, 48 hours of incubation): ++; Growth response (turbidity) ([1]; 100 g/L, 120 hours of incubation): ++; Growth response (turbidity) ([1]; 200 g/L, 24 hours of incubation): −; Growth response (turbidity) ([1]; 200 g/L, 48 hours of incubation): −; Growth response (turbidity) ([1]; 200 g/L, 120 hours of incubation): −

**Q.** What does the source list for CN(C)C(=S)[S-].[Na+] [sodium dithiodimethyl carbamate]?
**A.** growth (turbidity) ([3]; 0.1 g/L): ++; growth (turbidity) ([3]; 0.2 g/L): ++; growth (turbidity) ([3]; 0.3 g/L): −; growth (turbidity) ([3]; 0.5 g/L): −; growth (turbidity) ([3]; 0.8 g/L): −; growth (turbidity) ([3]; 1 g/L): −; concentration that must be reached before inhibition of microbial growth ends ([3]; stated 'as illustrated in Example 2'): < 0.1 g/L

**Q.** [Cl-].[Na+] [NaCl] was tested. Which “change in Log cell number” value ([2]; 50 g/L) did it give?
**A.** −1

**Q.** And the “Final anaerobic vial OD” value ([2]; 50 g/L)?
**A.** 0.08

**Q.** What about the “change in Log cell number” value ([2]; 80 g/L) of the same compound?
**A.** −3

**Q.** What about the “Final anaerobic vial OD” value ([2]; 80 g/L) of the same compound?
**A.** 0.11

**Q.** And the “change in Log cell number” value ([2]; 100 g/L)?
**A.** −1

**Q.** What about the “Final anaerobic vial OD” value ([2]; 100 g/L) of the same compound?
**A.** 0.05

**Q.** And the “change in Log cell number” value ([2]; 200 g/L)?
**A.** −2

**Q.** And the “Final anaerobic vial OD” value ([2]; 200 g/L)?
**A.** 0.03

**Q.** And the “change in Log cell number” value ([2]; 400 g/L)?
**A.** −4

**Q.** What about the “Final anaerobic vial OD” value ([2]; 400 g/L) of the same compound?
**A.** 0.03

**Q.** With Cc1cc(O)ccc1Cl [4-chloro-3-metyhl phenol] as the compound, how does the “growth (turbidity)” value ([3]; 0.1 g/L) read?
**A.** −

**Q.** And the “growth (turbidity)” value ([3]; 0.5 g/L)?
**A.** −

**Q.** And the “growth (turbidity)” value ([3]; 1 g/L)?
**A.** −
